Source: patent US12577226B2, “Compounds for treating Huntington's disease” (PTC THERAPEUTICS, INC., priority 2019, dated 2026)

Test system: Endogenous Huntingtin Protein (capture with MW1 (expanded polyglutamine) or MAB2166 antibody)
Assay: Endogenous Huntingtin Protein Assay (ELISA-based Meso Scale Discovery electrochemiluminescence assay)
Assay type: cell-based
Conditions: MSD electrochemiluminescence platform
Experimental: Compounds of Formula (I), Formula (II), or Formula (III) were tested using the Meso Scale Discovery (MSD) Assay provided in International Application No. PCT/US2016/066042, filed on Dec. 11, 2016 and claiming priority to U.S. Provisional Application U.S. 62/265,652 filed on Dec. 10, 2015, the entire contents of which are incorporated herein by reference.
The Endogenous Huntingtin Protein assay used in Example 1 was developed using the ELISA-based MSD electrochemiluminescence assay platform.
Meso Scale Discovery (MSD) 96-well or 384-well plates were coated overnight at 4° C. with MW1 (expanded polyglutamine) or MAB2166 monoclonal antibody (for capture) at a concentration of 1 μg/mL in PBS (30 μL per well). Plates were then washed three times with 300 μL wash buffer (0.05% Tween-20 in PBS) and blocked (100 μL blocking buffer; 5% BSA in PBS) for 4-5 hours at room temperature with rotational shaking and then washed three times with wash buffer.
Samples (25 μL) were transferred to the antibody-coated MSD plate and incubated overnight at 4° C. After removal of the lysates, the plate was washed three times with wash buffer, and 25 μL of #5656S (Cell signaling; rabbit monoclonal) secondary antibody (diluted to 0.25 μg/mL in 0.05% Tween-20 in blocking buffer) was added to each well and incubated with shaking for 1 Hour at room temperature. Following incubation with the secondary antibody, the wells were rinsed with wash buffer after which 25 μL of goat anti-rabbit SULFO TAG secondary detection antibody (required aspect of the MSD system) (diluted to 0.25 μg/mL in 0.05% Tween-20 in blocking buffer) was added to each well and incubated with shaking for 1 hour at room temperature. After rinsing three times with wash buffer, 150 μL of read buffer T with surfactant (MSD) were added to each empty well, and the plate was imaged on a SI 6000 imager (MSD) according to manufacturers' instructions provided for 96- or 384-well plates.

Compound | IC50
CC1(C)CC(Oc2ccc(-c3ncc(-n4ccnn4)cc3O)nn2)CC(C)(C)N1 [Compound 63, 2-{6-[(2,2,6,6-tetramethylpiperidin-4-yl)oxy]pyridazin-3-yl}-5-(1H-1,2,3-triazol-1-yl)pyridin-3-ol] | 0.1 to 0.5 µM
[2H]C([2H])([2H])n1cc(-c2cnc(-c3ccc(OC4CC(C)(C)NC(C)(C)C4)nn3)c(O)c2)cn1 [Compound 3, 5-[1-(^2H3)methyl-1H-pyrazol-4-yl]-2-{6-[(2,2,6,6-tetramethylpiperidin-4-yl)oxy]pyridazin-3-yl}pyridin-3-ol] | ≤ 0.1 µM
Cc1ncc(-c2cnc(-c3ccc(N4CC[C@@H](NC(C)(C)C)C4)nn3)c(O)c2)o1 [Compound 76, 2-{6-[(3R)-3-(tert-butylamino)pyrrolidin-1-yl]pyridazin-3-yl}-5-(2-methyl-1,3-oxazol-5-yl)pyridin-3-ol] | ≤ 0.1 µM
CN(c1ccc(-c2ncc(-c3cn[nH]c3)cc2O)nn1)C1CC(C)(C)NC(C)(C)C1 [Compound 2, 2-{6-[methyl(2,2,6,6-tetramethylpiperidin-4-yl)amino]pyridazin-3-yl}-5-(1H-pyrazol-4-yl)pyridin-3-ol] | ≤ 0.1 µM
2-(3-{[(3R,4R)-3-fluoro-2,2,6,6-tetramethylpiperidin-4-yl]amino}-1,2,4-triazin-6-yl)-5-[1-(^2H3)methyl-1H-pyrazol-4-yl]pyridin-3-ol and 2-(3-{[(3S,4S)-3-fluoro-2,2,6,6-tetramethylpiperidin-4-yl]amino}-1,2,4-triazin-6-yl)-5-[1-(^2H3)methyl-1H-pyrazol-4-yl]pyridin-3-ol [Compound 140] | ≤ 0.1 µM
CC1(C)CC(Oc2ncc(-c3ncc(-c4cn[nH]c4)cc3O)nn2)CC(C)(C)N1 [Compound 141, 5-(1H-pyrazol-4-yl)-2-{3-[(2,2,6,6-tetramethylpiperidin-4-yl)oxy]-1,2,4-triazin-6-yl}pyridin-3-ol] | 0.5 to 1 µM
Cn1cc2cc(-c3cnc(-c4ccc(N5CC(C)(C)NC(C)(C)C5)nn4)c(O)c3)cc(F)c2n1 [Compound 89, 5-(7-fluoro-2-methyl-2H-indazol-5-yl)-2-[6-(3,3,5,5-tetramethylpiperazin-1-yl)pyridazin-3-yl]pyridin-3-ol] | ≤ 0.1 µM
CC1(C)C[C@H](Nc2ccc(-c3ncc(-c4cn[nH]c4)cc3O)nn2)[C@@H](F)C(C)(C)N1 [Compound 8, 2-(6-{[(3R,4S)-3-fluoro-2,2,6,6-tetramethylpiperidin-4-yl]amino}pyridazin-3-yl)-5-(1H-pyrazol-4-yl)pyridin-3-ol] | ≤ 0.1 µM
2-{3-[(3R)-3-(tert-butylamino)pyrrolidin-1-yl]-1,2,4-triazin-6-yl}-5-(2,8-dimethylimidazo[1,2-b]pyridazin-6-yl)pyridin-3-ol [Compound 149] | ≤ 0.1 µM
Cc1cn2nc(-c3cnc(-c4ccc(O[C@H]5CC(C)(C)NC(C)(C)[C@H]5F)nn4)c(O)c3)cc(C)c2n1 [Compound 38, 5-(2,8-dimethylimidazo[1,2-b]pyridazin-6-yl)-2-(6-{ [(3R,4S)-3-fluoro-2,2,6,6-tetramethylpiperidin-4-yl]oxy}pyridazin-3-yl)pyridin-3-ol or 5-(2,8-dimethylimidazo[1,2-b]pyridazin-6-yl)-2-(6-{ [(3S,4R)-3-fluoro-2,2,6,6-tetramethylpiperidin-4-yl]oxy}pyridazin-3-yl)pyridin-3-ol] | ≤ 0.1 µM
5-[(5-methylpyrazin-2-yl)amino]-2-{6-[(3R)-3-(propan-2-yl)piperazin-1-yl]pyridazin-3-yl}pyridin-3-ol and 5-[(5-methylpyrazin-2-yl)amino]-2-{6-[(3S)-3-(propan-2-yl)piperazin-1-yl]pyridazin-3-yl}pyridin-3-ol [Compound 133] | ≤ 0.1 µM
C[C@@H]1CN(c2ccc(-c3ncc(-c4cc(F)c5nn(C)cc5c4)cc3O)nn2)CCN1 [Compound 104, 5-(7-fluoro-2-methyl-2H-indazol-5-yl)-2-{6-[(3R)-3-methylpiperazin-1-yl]pyridazin-3-yl}pyridin-3-ol] | ≤ 0.1 µM
CN1CCN(c2ncc(-c3ncc(-c4cn[nH]c4)cc3O)nn2)CC1 [Compound 152, 2-[3-(4-methylpiperazin-1-yl)-1,2,4-triazin-6-yl]-5-(1H-pyrazol-4-yl)pyridin-3-ol] | 0.5 to 1 µM
Cn1cc2cc(-c3cnc(-c4ccc(OC5CC(C)(C)NC(C)(C)C5)nn4)c(O)c3)cc(C#N)c2n1 [Compound 62, 5-[6-(6-{[2,2,6,6-tetramethylpiperidin-4-yl]oxy}pyridazin-3-yl)-5-hydroxypyridin-3-yl]-2-methyl-2H-indazole-7-carbonitrile] | ≤ 0.1 µM
COc1cc(-c2cnc(-c3ccc(OC4CC(C)(C)NC(C)(C)C4)nn3)c(O)c2)ncn1 [Compound 74, 5-(6-methoxypyrimidin-4-yl)-2-{6-[(2,2,6,6-tetramethylpiperidin-4-yl)oxy]pyridazin-3-yl}pyridin-3-ol] | ≤ 0.1 µM
CC1(C)CC(Oc2ccc(-c3ncc(-c4ncco4)cc3O)nn2)CC(C)(C)N1 [Compound 10, 5-(1,3-oxazol-2-yl)-2-{6-[(2,2,6,6-tetramethylpiperidin-4-yl)oxy]pyridazin-3-yl}pyridin-3-ol] | ≤ 0.1 µM
[2H]C([2H])([2H])n1cc(-c2cnc(-c3ccc(O[C@@H]4C[C@H](C)NC5(CC5)C4)nn3)c(O)c2)cn1 [Compound 83, 2-(6-{[(5S,7R)-5-methyl-4-azaspiro[2.5]octan-7-yl]oxy}pyridazin-3-yl)-5-[1-(^2H3)methyl-1H-pyrazol-4-yl]pyridin-3-ol] | 0.1 to 0.5 µM
CN(c1ccc(-c2ncc(-c3cc(F)c4nn(C)cc4c3)cc2O)nn1)C1CC(C)(C)NC2(CC2)C1 (stereo not shown) [Compound 64, 2-{6-[(5,5-dimethyl-4-azaspiro[2.5]octan-7-yl)(methyl)amino]pyridazin-3-yl}-5-(7-fluoro-2-methyl-2H-indazol-5-yl)pyridin-3-ol] | ≤ 0.1 µM
Cc1cnc(Nc2cnc(-c3cnc(N4CCN[C@@H](C(C)C)C4)nn3)c(O)c2)cn1 [Compound 154, 5-[(5-methylpyrazin-2-yl)amino]-2-[3-[(3S)-3-(propan-2-yl)piperazin-1-yl]-1,2,4-triazin-6-yl}pyridin-3-ol] | ≤ 0.1 µM
Oc1cc(-n2nccn2)cnc1-c1cnc(N2CCN[C@@H](C3CC3)C2)nn1 [Compound 159, 2-{3-[(3S)-3-cyclopropylpiperazin-1-yl]-1,2,4-triazin-6-yl}-5-(2H-1,2,3-triazol-2-yl)pyridin-3-ol] | 0.1 to 0.5 µM
COc1cc(-c2cnc(-c3ccc(OC4CC(C)(C)NC(C)(C)C4)nn3)c(O)c2)nn2cc(C)nc12 [Compound 81, 5-(8-methoxy-2-methylimidazo[1,2-b]pyridazin-6-yl)-2-{6-[(2,2,6,6-tetramethylpiperidin-4-yl)oxy]pyridazin-3-yl}pyridin-3-ol] | ≤ 0.1 µM
5-(8-ethyl-2-methylimidazo[1,2-a]pyridin-6-yl)-2-(6-{[(3R,4S)-3-fluoro-2,2,6,6-tetramethylpiperidin-4-yl]oxy}pyridazin-3-yl)pyridin-3-ol and 5-(8-ethyl-2-methylimidazo[1,2-a]pyridin-6-yl)-2-(6-{[(3S,4R)-3-fluoro-2,2,6,6-tetramethylpiperidin-4-yl]oxy}pyridazin-3-yl)pyridin-3-ol [Compound 45] | ≤ 0.1 µM
CC1(C)C[C@H](Oc2ccc(-c3ncc(-c4ncco4)cc3O)nn2)[C@H](F)C(C)(C)N1 (single isomer, unassigned) [Compound 12, 2-(6-{[(3R,4S)-3-fluoro-2,2,6,6-tetramethylpiperidin-4-yl]oxy}pyridazin-3-yl)-5-(1,3-oxazol-2-yl)pyridin-3-ol or 2-(6-{[(3S,4R)-3-fluoro-2,2,6,6-tetramethylpiperidin-4-yl]oxy}pyridazin-3-yl)-5-(1,3-oxazol-2-yl)pyridin-3-ol] | ≤ 0.1 µM
Cn1cc2cc(-c3cnc(-c4ccc(O[C@H]5CC(C)(C)NC(C)(C)[C@H]5F)nn4)c(O)c3)cc(C#N)c2n1 (single isomer, unassigned) [Compound 34, 5-[6-(6-{[(3R,4S)-3-fluoro-2,2,6,6-tetramethylpiperidin-4-yl]oxy}pyridazin-3-yl)-5-hydroxypyridin-3-yl]-2-methyl-2H-indazole-7-carbonitrile or 5-[6-(6-{[(3S,4R)-3-fluoro-2,2,6,6-tetramethylpiperidin-4-yl]oxy}pyridazin-3-yl)-5-hydroxypyridin-3-yl]-2-methyl-2H-indazole-7-carbonitrile] | ≤ 0.1 µM
CC1(C)CC(Nc2cnc(-c3ncc(-n4nccn4)cc3O)nn2)CC(C)(C)N1 [Compound 163, 2-{6-[(2,2,6,6-tetramethylpiperidin-4-yl)amino]-1,2,4-triazin-3-yl}-5-(2H-1,2,3-triazol-2-yl)pyridin-3-ol] | ≤ 0.1 µM
